Source: patent publication US12239643B2, “Therapeutic agent for inflammatory diseases, autoimmune diseases, fibrotic diseases, and cancer diseases” (MEIJI SEIKA PHARMA CO., LTD., priority 2018, dated 2025)
pIC50: −log10 of the molar value. Like-named read-outs stand apart in the source and are kept apart here.

What was measured:
[1] = test system: PDE4; assay: Evaluation of PDE4 inhibitory activity, scintillation proximity assay; assay type: biochemical; details: for PDE4 inhibitory activity: summary in words of Tables 57 to 69
Procedure, shortened: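 SPA with [2,8-3H]-cAMP and diluted PDE4 enzyme preparation in 50 mM Tris-HCl pH 7.4, 8.3 mM MgCl2, 1.7 mM EGTA, 3 mg/mL BSA, 120 min at room temperature. Product captured on ZnSO4-containing YSi-SPA beads, scintillation counted; IC50 from inhibition curves vs DMSO control and no-enzyme blank.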

[2] = test system: TGF-β; assay: TGF-β inhibitory activity using THP1 cells differentiated into macrophages; assay type: cell-based; details: Homo sapiens, THP-1; THP1 cells differentiated into macrophages, lipopolysaccharide 1 μg/mL, about 7 hours; read-out: TFG-β Inhibitory Activity (Test Example 6)
Experimental: The TGF-β inhibitory activity was measured using THP1 cells as follows. First, THP1 cells were seeded on a 24-well culture plate at […], and culture was carried out overnight at 37° C. and 5% CO2 in RPMI-1640 medium (containing 10% fetal bovine serum, penicillin, and streptomycin) supplemented with 100 nM phorbol myristate acetate. After that, the cells were differentiated into macrophages by changing to RPMI-1640 medium without phorbol myristate acetate, followed by further culture at 37° C. under 5% CO2 overnight. Next, the THP1 culture plate was washed once with PBS(−) 1 mL/well, and then the test compound and lipopolysaccharide (final concentration 1 μg/mL) were added, followed by culture at 37° C. under 5% CO2 for about 7 hours. After culturing, the entire amount of the medium was collected, and the amount of TGF-β in the centrifuged supernatant was quantified by the sandwich ELISA method. The non-addition of lipopolysaccharide was used as a blank, and the control was obtained by adding only dimethyl sulfoxide instead of the test compound, and the inhibition rate of the test compound against the control was calculated by the following formula. Inhibition Rate (%)={1−(Value at Addition of Each Test Compound−Blank Value)/(Control Value−Blank Value)}×100
In addition, the TGF-β inhibitory activity (concentration for the inhibition rate of 50%) of the test compound was calculated from the inhibition curves based on the inhibition rate for various concentrations of the test compound.
The measurement results obtained by measuring the TFG-β inhibitory activity (50% inhibitory concentration) of the test compounds by the above method were evaluated in accordance with the following evaluated basis; A: less than 1 μM, and B: 1 μM or more.

[3] = test system: oxazolone-induced auricle edema, BALB/c mice; assay: Hapten repeated application mouse chronic dermatitis model (oral, topical); assay type: in vivo; details: oral, 0.3 to 10 mg/kg twice a day for 10 days
Experimental: Evaluation was carried out using female BALB/c mice (7 to 8 weeks of age). First, the hair of the abdomen of the mice was treated with a hair clipper, and then 150 μL of a 3% oxazolone acetone/ethanol solution was applied to the abdomen as a hapten. One week later, 20 μL/ear of 1% oxazolone acetone/ethanol solution was applied to the outer surface of the auricle of both ears of the mice 3 times/week to induce inflammation. A 1% oxazolone-acetone/ethanol solution was applied every other day for 10 days from 1 week after the start of inflammation induction. In addition, for 10 days from 1 week after the start of inflammation induction, the test compound suspended in 0.5% w/v methylcellulose (0.5% MC) was orally administered at 0.3 to 10 mg/kg twice a day (10 μL/g), or 20 μL of a 0.3 to 3% test compound dissolved in an acetone/ethanol solution was applied once or twice a day (topical administration). A 1% oxazolone was not applied to the blank. The control was one in which 1% oxazolone was applied and only 0.5% MC was orally administered without using the test compound, or only an acetone/ethanol solution was applied.
After administration for 10 days, auricle thickness was measured using a dial thickness gauge, and the changes in auricular thickness before the treatment (immediately before the start of administration of the test compound) and after the treatment (after the administration of the test compound for 10 days) were used to calculate the edema suppression rate by the following formula. Edema Suppression Rate (%)={1−(Auricle Thickness After Treatment by Test Compound−Auricle Thickness Before Treatment by Test Compound)/(Auricle Thickness After Treatment of Control−Auricle Thickness Before Treatment of Control)}×100
The measurement results obtained by measuring the edema suppression rate at the time of oral administration of each test compound by the above method were evaluated in accordance with the following evaluated basis; A: 70% or more, B: 40% or more and less than 70%, and C: less than 40%. In addition, the measurement results obtained by measuring the edema suppression rate at the time of topical administration of each test compound were evaluated in accordance with the following evaluated basis; A: 100% or more, B: 70% or more and less than 100%, and C: less than 70%.

[4] = Hepatic metabolic stability (rat liver microsome method); assay type: in vitro ADME; details: rat liver microsomes 0.5 mg/mL, test substance 1 μM, NADPH 1 mM, 37° C., 30 minutes
Procedure, shortened: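 Rat liver microsomes (0.5 mg/mL final) with test compound (1 μM final) in 100 mM potassium phosphate pH 7.4, 37° C; reaction started with NADPH (1 mM final) after 5 min preincubation. Acetonitrile stop at 0 and 30 min, LC-MS quantitation; % remaining = 30 min/0 min ×100, graded A ≥75%, B 60–<75%, C 45–<60%, D <45%.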

[5] = finer grading of compounds rated A in Evaluation 1, read-out: PDE4 Inhibitory Activity (Evaluation 2)
[6] = scintillation proximity assay, class symbols of Evaluation 1, read-out: PDE4 Inhibitory Activity (concentration for the inhibition rate of 50%, IC50), Evaluation 1
[7] = scintillation proximity assay, read-out: PDE4 Inhibitory Activity (Evaluation 1; concentration for the inhibition rate of 50%)

SMILES: FC(F)(F)Oc1ccc(-c2nccs2)c2oc(N3CC4CCCC(C3)N4)nc12 [Example 30, 2-(3,9-Diazabicyclo[3.3.1]nonan-3-yl)-7-(thiazol-2-yl)-4-(trifluoromethoxy)benzo[d]oxazole]
- pIC50 [1, 5]: ≥ 9.00
- pIC50 [1, 6]: > 7.00
- PDE4 inhibitory activity [1]: particularly excellent
- pIC50 [2]: > 6.00

SMILES: CC(C)(O)c1cc(-c2nccs2)c2oc(N3CC4CCC(C3)N4)nc2c1C(F)(F)F [Example 177, 2-(2-(3,8-Diazabicyclo[3.2.1]octan-3-yl)-7-(thiazol-2-yl)-4-(trifluoromethyl)benzo[d]oxazol-5-yl)propan-2-ol]
- pIC50 [1, 5]: 7.96 to 9.00
- pIC50 [1, 6]: > 7.00
- PDE4 inhibitory activity [1]: particularly excellent
- pIC50 [2]: > 6.00

SMILES: CC(=O)c1cc(-c2nccs2)c2oc(N3CC4CC(C3)N4)nc2c1OC(F)(F)F [Example 212, 1-(2-(3,6-Diazabicyclo[3.1.1]heptan-3-yl)-7-(thiazol-2-yl)-4-(trifluoromethoxy)benzo[d]oxazol-5-yl)ethan-1-one]
- pIC50 [1, 5]: ≥ 9.00
- pIC50 [1, 7]: > 7.00
- PDE4 inhibitory activity [1]: particularly excellent
- Mouse Chronic Dermatitis Model (Test Example 8), Oral: edema suppression rate [3]: B (B: 40% or more and less than 70%)

SMILES: COC(c1cc(-c2nccs2)c2oc(N3CC4CC(C3)N4)nc2c1OC(F)(F)F)C(F)F (centres unmarked) [Example 208, 2-(3,6-Diazabicyclo[3.1.1]heptan-3-yl)-5-(2,2-difluoro-1-methoxyethyl)-7-(thiazol-2-yl)-4-(trifluoromethoxy)benzo[d]oxazole]
- pIC50 [1, 5]: 7.96 to 9.00
- pIC50 [1, 7]: > 7.00
- PDE4 inhibitory activity [1]: particularly excellent
- Mouse Chronic Dermatitis Model (Test Example 8), Oral: edema suppression rate [3]: B (B: 40% or more and less than 70%)

SMILES: CC(O)(c1ccc(-c2nccs2)c2oc(N3CC4CC(C3)N4)nc12)C(F)F (centres unmarked) [Example 296, 2-(2-(3,6-Diazabicyclo[3.1.1]heptan-3-yl)-7-(thiazol-2-yl)benzo[d]oxazol-4-yl)-1,1-difluoropropan-2-ol]
- pIC50 [1, 5]: 7.96 to 9.00
- pIC50 [1, 7]: > 7.00
- PDE4 inhibitory activity [1]: particularly excellent
- Mouse Chronic Dermatitis Model (Test Example 8), Oral: edema suppression rate [3]: A (A: 70% or more)

SMILES: Cc1ccc(-c2nccs2)c2oc(N3CC4CCC(C3)N4)nc12 [Example 25, 2-(3,8-Diazabicyclo[3.2.1]octan-3-yl)-4-methyl-7-(thiazol-2-yl)benzo[d]oxazole]
- pIC50 [1, 5]: ≥ 9.00
- pIC50 [1, 6]: > 7.00
- PDE4 inhibitory activity [1]: particularly excellent
- pIC50 [2]: > 6.00

SMILES: COC(C)(c1ccc(-c2nccs2)c2oc(N3CC4CC(C3)N4)nc12)C(F)(F)F (centres unmarked) [Example 235, 2-(3,6-Diazabicyclo[3.1.1]heptan-3-yl)-7-(thiazol-2-yl)-4-(1,1,1-trifluoro-2-methoxypropan-2-yl)benzo[d]oxazole]
- pIC50 [1, 5]: ≥ 9.00
- pIC50 [1, 7]: > 7.00
- PDE4 inhibitory activity [1]: particularly excellent
- Mouse Chronic Dermatitis Model (Test Example 8), Oral: edema suppression rate [3]: A (A: 70% or more)

SMILES: CC(O)(c1ccc(-c2nccs2)c2oc(N3CC4CC(C3)N4)nc12)C(F)(F)F (centres unmarked) [Example 234, 2-(2-(3,6-Diazabicyclo[3.1.1]heptan-3-yl)-7-(thiazol-2-yl)benzo[d]oxazol-4-yl)-1,1,1-trifluoropropan-2-ol]
- pIC50 [1, 5]: ≥ 9.00
- pIC50 [1, 7]: > 7.00
- PDE4 inhibitory activity [1]: particularly excellent
- Mouse Chronic Dermatitis Model (Test Example 8), Oral: edema suppression rate [3]: A (A: 70% or more)

SMILES: c1csc(-c2ccc(OC3COC3)c3nc(N4CC5CC(C4)N5)oc23)n1 [Example 325, 2-(3,6-Diazabicyclo[3.1.1]heptan-3-yl)-4-(oxetan-3-yloxy)-7-(thiazol-2-yl)benzo[d]oxazole]
- pIC50 [1, 7]: > 7.00
- Residual ratio (% remaining for 30-minute reaction) [4]: A (A: a % remaining rate of 75% or more)

SMILES: CC(C)(O)C(F)(F)Oc1ccc(-c2ncns2)c2oc(N3CC4CCC(C3)N4)nc12 [Example 327, 1-((2-(3,8-Diazabicyclo[3.2.1]octan-3-yl)-7-(1,2,4-thiadiazol-5-yl)benzo[d]oxazol-4-yl)oxy)-1,1-difluoro-2-methylpropan-2-ol]
- pIC50 [1, 7]: > 7.00
- Residual ratio (% remaining for 30-minute reaction) [4]: B (B: 60% or more and less than 75%)

SMILES: CC(C)(O)C(F)(F)Oc1c(Br)cc(-c2nccs2)c2oc(N3CC4CC(C3)N4)nc12 [Example 399, 1-((2-(3,6-Diazabicyclo[3.1.1]heptan-3-yl)-5-bromo-7-(thiazol-2-yl)benzo[d]oxazol-4-yl)oxy)-1,1-difluoro-2-methylpropan-2-ol]
- pIC50 [1, 7]: > 7.00
- Residual ratio (% remaining for 30-minute reaction) [4]: B (B: 60% or more and less than 75%)

SMILES: CN(CCO)C(=O)c1ccc(-c2nccs2)c2oc(N3CC4CC(C3)N4)nc12 [Example 356, 2-(3,6-Diazabicyclo[3.1.1]heptan-3-yl)-N-(2-hydroxyethyl)-N-methyl-7-(thiazol-2-yl)benzo[d]oxazole-4-carboxamide]
- pIC50 [1, 7]: 6.00 to 7.00
- Residual ratio (% remaining for 30-minute reaction) [4]: A (A: a % remaining rate of 75% or more)

SMILES: OCC(F)(F)Oc1ccc(-c2ccccn2)c2oc(N3CC4CC(C3)N4)nc12 [Example 315, 2-((2-(3,6-Diazabicyclo[3.1.1]heptan-3-yl)-7-(pyridin-2-yl)benzo[d]oxazol-4-yl)oxy)-2,2-difluoroethan-1-ol]
- pIC50 [1, 7]: > 7.00
- Residual ratio (% remaining for 30-minute reaction) [4]: A (A: a % remaining rate of 75% or more)

SMILES: c1csc(-c2ccc(OC3CCOCC3)c3nc(N4CC5CC(C4)N5)oc23)n1 [Example 294, 2-(3,6-Diazabicyclo[3.1.1]heptan-3-yl)-4-((tetrahydro-2H-pyran-4-yl)oxy)-7-(thiazol-2-yl)benzo[d]oxazole]
- pIC50 [1, 7]: > 7.00
- Residual ratio (% remaining for 30-minute reaction) [4]: A (A: a % remaining rate of 75% or more)

SMILES: COCCNC(=O)c1ccc(-c2nccs2)c2oc(N3CC4CC(C3)N4)nc12 [Example 353, 2-(3,6-Diazabicyclo[3.1.1]heptan-3-yl)-N-(2-methoxyethyl)-7-(thiazol-2-yl)benzo[d]oxazole-4-carboxamide]
- pIC50 [1, 7]: > 7.00
- Residual ratio (% remaining for 30-minute reaction) [4]: A (A: a % remaining rate of 75% or more)

SMILES: O=C(NCCO)C(F)(F)Oc1ccc(-c2nccs2)c2oc(N3CC4CC(C3)N4)nc12 [Example 411, 2-((2-(3,6-Diazabicyclo[3.1.1]heptan-3-yl)-7-(thiazol-2-yl)benzo[d]oxazol-4-yl)oxy)-2,2-difluoro-N-(2-hydroxyethyl)acetamide]
- pIC50 [1, 7]: > 7.00
- Residual ratio (% remaining for 30-minute reaction) [4]: A (A: a % remaining rate of 75% or more)

SMILES: O=C(NCCO)c1ccc(-c2nccs2)c2oc(N3CC4CC(C3)N4)nc12 [Example 355, 2-(3,6-Diazabicyclo[3.1.1]heptan-3-yl)-N-(2-hydroxyethyl)-7-(thiazol-2-yl)benzo[d]oxazole-4-carboxamide]
- pIC50 [1, 7]: > 7.00
- Residual ratio (% remaining for 30-minute reaction) [4]: A (A: a % remaining rate of 75% or more)
